Data taken from patent US20120214821A1, “Lipidomic Biomarkers of Diabetes” (THE BROAD INSTITUTE, INC., priority 2011, published 2012).

Experiments:
plasma TAGs = settings: 20 non-diabetic individuals, after four doses of metformin 500 mg over two days (FIG. 6C)
Method: (§1) Pharmacologic studies were performed as follows. […] After a washout period of 6 days, subjects received metformin 500 mg twice daily for two days in order to reduce hepatic gluconeogenesis, and then underwent a 75 g OGTT in the presence of metformin. […] From the first 164 subjects completing the protocol, 20 participants were selected who represented both high and low ends of the HOMA-IR range.
(§2) OGTT causes an acute rise in plasma glucose, which then triggers a rise in insulin.
(§3) After a washout period of 6 days, these 20 individuals were then administered four doses of metformin (500 mg) over two days. Although chronic metformin use decreases insulin resistance, its acute effect is to decrease hepatic glucose output, and as a result, lower plasma insulin (10).

[1] = 20 non-diabetic individuals, after four doses of metformin 500 mg over two days; baseline 95 mg/dL; p=0.022
Method: as §1, §2, §3

## CN(C)C(=N)N=C(N)N [metformin]
Plasma TAGs
  TAG response (change of plasma TAGs by carbon number and double bond content): an increase in TAGs of lower carbon number and double bond content, and a decrease in TAGs of higher carbon number and double bond content
[1]
  mean plasma glucose: 86 mg/dL
